The test system of this data set is rodent carcinogenicity bioassays, tumor incidence. Briefly: CCRIS carcinogenicity studies. The method, boiled down: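 Archive of carcinogenicity, mutagenicity, tumor promotion and tumor inhibition results drawn from journals, NCI reports and other sources, expert-reviewed; covers 1985-2011 and is no longer updated.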

Calls of active or inactive are those of the source. No rule for the calls is given here.

As for `ClC(Cl)Cl`, the carcinogen call runs as follows: (Species: FISH, Strain/Sex: ORYZIPIAS LATIPES/FEMALE, Route: IMMERSION, Dose: 0, 0.017, 0.151, 1.463 MG/L AQUEOUS SOLUTION FOR 6 MO (STUDY DURATION: 6 MO), Dose: 0, 0.017, 0.151, 1.463 MG/L AQUEOUS SOLUTION FOR 6 MO (STUDY DURATION: 6 MO)) “inactive; negative”; (Species: FISH, Strain/Sex: ORYZIPIAS LATIPES/FEMALE, Route: IMMERSION, Dose: 0, 0.017, 0.151, 1.463 MG/L AQUEOUS SOLUTION FOR 9 MO (STUDY DURATION: 9 MO), Dose: 0, 0.017, 0.151, 1.463 MG/L AQUEOUS SOLUTION FOR 9 MO (STUDY DURATION: 9 MO)) “inactive; negative”; (Species: FISH, Strain/Sex: ORYZIPIAS LATIPES/MALE, Route: IMMERSION, Dose: 0, 0.017, 0.151, 1.463 MG/L AQUEOUS SOLUTION FOR 6 MO (STUDY DURATION: 6 MO), Dose: 0, 0.017, 0.151, 1.463 MG/L AQUEOUS SOLUTION FOR 6 MO (STUDY DURATION: 6 MO)) “inactive; negative”; (Species: FISH, Strain/Sex: ORYZIPIAS LATIPES/MALE, Route: IMMERSION, Dose: 0, 0.017, 0.151, 1.463 MG/L AQUEOUS SOLUTION FOR 9 MO (STUDY DURATION: 9 MO), Dose: 0, 0.017, 0.151, 1.463 MG/L AQUEOUS SOLUTION FOR 9 MO (STUDY DURATION: 9 MO)) “inactive; negative”; (Species: MOUSE, Strain/Sex: B6C3F1/FEMALE, Route: ORAL, Dose: 0, 200, 400, 900, 1800 MG/L IN DRINKING WATER FOR 104 WK (STUDY DURATION: 24 MO), Dose: 0, 200, 400, 900, 1800 MG/L IN DRINKING WATER FOR 104 WK (STUDY DURATION: 24 MO)) “inactive; negative”; (Species: MOUSE, Strain/Sex: B6C3F1/FEMALE, Route: ORAL, Dose: 0, 200, 400, 900, 1800 ML/L IN DRINKING WATER FOR AN AVERAGE DOSE OF 0, 34, 65, 130, 263 MG/KG BW/D FOR 104 WK (STUDY DU, Dose: 0, 200, 400, 900, 1800 ML/L IN DRINKING WATER FOR AN AVERAGE DOSE OF 0, 34, 65, 130, 263 MG/KG BW/D FOR 104 WK (STUDY DU) “inactive; negative”. The carcinogen call is “active; positive” (Species: MOUSE, Strain/Sex: B6C3F1/MALE,FEMALE, Route: GAVAGE, Tumor Site: Type of Lesion: LIVER: HEPATOCELLULAR CARCINOMA); “active; positive” (Species: MOUSE, Strain/Sex: BDF1/FEMALE, Route: INHALATION, Dose: 0, 5, 30, 90 PPM IN AIR, 6 HR/D, 5 D/WK FOR 104 WK (STUDY DURATION: 104 WK), Dose: 0, 5, 30, 90 PPM IN AIR, 6 HR/D, 5 D/WK FOR 104 WK (STUDY DURATION: 104 WK), Tumor Site: Type of Lesion: LIVER: HEPATOCELLULAR CARCINOMA, HEPATOCELLULAR CARCINOMA AND ADENOMA); “active; positive” (Species: MOUSE, Strain/Sex: BDF1/MALE, Route: INHALATION, Dose: 0, 5, 30, 90 PPM IN AIR, 6 HR/D, 5 D/WK FOR 104 WK (STUDY DURATION: 104 WK), Dose: 0, 5, 30, 90 PPM IN AIR, 6 HR/D, 5 D/WK FOR 104 WK (STUDY DURATION: 104 WK), Tumor Site: Type of Lesion: LIVER: HEPATOCELLULAR CARCINOMA, HEPATOCELLULAR CARCINOMA AND ADENOMA, KIDNEYS: RENAL CELL CARCINOMA, RENAL CELL ADENOMA); “inactive; negative” (Species: RAT, Strain/Sex: F344/DUCRJ/MALE, Route: INHALATION, Dose: 0;25, 50, 100 PPM VAPOR CHAMBER 6 HR/D, 5 D/WK FOR 104 WK (STUDY DURATION: 104 WK), Dose: 0;25, 50, 100 PPM VAPOR CHAMBER 6 HR/D, 5 D/WK FOR 104 WK (STUDY DURATION: 104 WK)); “active; positive” (Species: RAT, Strain/Sex: F344/DUCRJ/MALE, Route: ORAL AND INHALATION, Dose: 0, 1,000 PPM IN DRINKING WATER AND 0, 25, 50, 100 PPM VAPOR CHAMBER 6 HR/D, 5 D/WK , BOTH FOR 104 WK (STUDY DURATION: 10, Dose: 0, 1,000 PPM IN DRINKING WATER AND 0, 25, 50, 100 PPM VAPOR CHAMBER 6 HR/D, 5 D/WK , BOTH FOR 104 WK (STUDY DURATION: 10, Tumor Site: Type of Lesion: KIDNEY: ADENOMA, CARCINOMA, THYROID: ADENOMA, CARCINOMA); “inactive; negative” (Species: RAT, Strain/Sex: F344/DUCRJ/MALE, Route: ORAL, Dose: 0, 1,000 PPM IN DRINKING FOR 104 WK (STUDY DURATION: 104 WK)). The carcinogen call by setting is: (Species: RAT, Strain/Sex: F344/FEMALE, Route: INHALATION, Dose: 0, 10, 30, 90 PPM IN AIR, 6 HR/D, 5 D/WK FOR 104 WK (STUDY DURATION: 104 WK), Dose: 0, 10, 30, 90 PPM IN AIR, 6 HR/D, 5 D/WK FOR 104 WK (STUDY DURATION: 104 WK)) “inactive; negative”; (Species: RAT, Strain/Sex: F344/MALE, Route: INHALATION, Dose: 0, 10, 30, 90 PPM IN AIR, 6 HR/D, 5 D/WK FOR 104 WK (STUDY DURATION: 104 WK), Dose: 0, 10, 30, 90 PPM IN AIR, 6 HR/D, 5 D/WK FOR 104 WK (STUDY DURATION: 104 WK)) “inactive; negative”; (Species: RAT, Strain/Sex: OSBORNE-MENDEL/MALE, Route: GAVAGE, Tumor Site: Type of Lesion: KIDNEY: ADENOMA, CARCINOMA) “active; positive”; (Species: RAT, Strain/Sex: OSBORNE-MENDEL/MALE, Route: ORAL, Dose: 0, 200, 400, 900, 1800 MG/L IN DRINKING WATER FOR 104 WK (STUDY DURATION: 24 MO), Dose: 0, 200, 400, 900, 1800 MG/L IN DRINKING WATER FOR 104 WK (STUDY DURATION: 24 MO), Tumor Site: Type of Lesion: KIDNEY: TUBULAR CELL CARCINOMA OR ADENOCARCINOMA, TUBULAR CELL CARCINOMA, ADRENAL GLAND: CORTICAL ADENOMA, PHEOCHROMOCYT) “active; positive”; (Species: RAT, Strain/Sex: OSBORNE-MENDEL/MALE, Route: ORAL, Dose: 0, 200, 400, 900, 1800 ML/L IN DRINKING WATER FOR AN AVERAGE DOSE OF 0, 19, 38, 81, 160 MG/KG BW/D FOR 104 WK (STUDY DUR, Dose: 0, 200, 400, 900, 1800 ML/L IN DRINKING WATER FOR AN AVERAGE DOSE OF 0, 19, 38, 81, 160 MG/KG BW/D FOR 104 WK (STUDY DUR, Tumor Site: Type of Lesion: KIDNEY (TUBULAR CELL): ADENOMA OR ADENOCARCINOMA) “active; positive”; (Species: RAT, Strain/Sex: WISTAR/FEMALE, Route: ORAL, Dose: 0, 2 ML/L (24 MILLIMOLAR) IN DRINKING WATER FOR 72 WK THEN DOSE HALVED FOR DURATION OF STUDY (STUDY DURATION: LIFETIME), Tumor Site: Type of Lesion: LIVER: NEOPLASTIC NODULES) “active; positive”. Moreover, the carcinogen call was “inactive; negative” (Species: RAT, Strain/Sex: WISTAR/MALE, Route: ORAL, Dose: 0, 2 ML/L (24 MILLIMOLAR) IN DRINKING WATER FOR 72 WK THEN DOSE HALVED FOR DURATION OF STUDY (STUDY DURATION: LIFETIME)); “active; positive, positive trend; significant increase in high dose group; exposure leve” (Species: Rat, Strain/Sex: F344/DuCrj/ Male (50 per group), Route: Inhalation and oral (drinking water), Dose: 0, 25, 50, 100 ppm in air, 6 hr/d, 5 d/wk for 104 wk, each group also given chloroform-formulated drinking water (1000 p, Dose: 0, 25, 50, 100 ppm in air, 6 hr/d, 5 d/wk for 104 wk, each group also given chloroform-formulated drinking water (1000 p, Tumor Site: Type of Lesion: KIDNEY: renal-cell adenomas and carcinomas); “inactive; negative” (Species: Rat, Strain/Sex: F344/DuCrj/ Male (50 per group), Route: Inhalation, Dose: 0, 25, 50, 100 ppm in air, 6 hr/d, 5 d/wk for 104 wk, Dose: 0, 25, 50, 100 ppm in air, 6 hr/d, 5 d/wk for 104 wk, Tumor Site: Type of Lesion: KIDNEY: one renal-cell adenoma in the high dose group).

With `COC(=O)c1ccc(C(=O)OC)cc1`, the carcinogen call runs as follows: (Species: MOUSE, Strain/Sex: B6C3F1/FEMALE, Route: ORAL, Dose: 0, 2500, 5000 PPM IN DIET FOR 103 WK (STUDY DURATION: 104-105 WK), Dose: 0, 2500, 5000 PPM IN DIET FOR 103 WK (STUDY DURATION: 104-105 WK)) “inactive; negative”; (Species: MOUSE, Strain/Sex: B6C3F1/MALE, Route: ORAL, Dose: 0, 2500, 5000 PPM IN DIET FOR 103 WK (STUDY DURATION: 104-105 WK), Dose: 0, 2500, 5000 PPM IN DIET FOR 103 WK (STUDY DURATION: 104-105 WK), Tumor Site: Type of Lesion: LUNG: ALVEOLAR/BRONCHIOLAR ADENOMA OR CARCINOMA) “equivocal”; (Species: RAT, Strain/Sex: F344/FEMALE, Route: ORAL, Dose: 0, 2500, 5000 PPM IN DIET FOR 103 WK (STUDY DURATION: 105-106 WK), Dose: 0, 2500, 5000 PPM IN DIET FOR 103 WK (STUDY DURATION: 105-106 WK)) “inactive; negative”; (Species: RAT, Strain/Sex: F344/MALE, Route: ORAL, Dose: 0, 2500, 5000 PPM IN DIET FOR 103 WK (STUDY DURATION: 105-106 WK), Dose: 0, 2500, 5000 PPM IN DIET FOR 103 WK (STUDY DURATION: 105-106 WK)) “inactive; negative”.

The values are drawn from PubChem BioAssay AID1259411 (Chemical Carcinogenesis Research Information System (CCRIS), 2018).
